Reference: ChEMBL document CHEMBL3734678, “Protective effect and mechanism of action of lupane triterpenes from Cornus walteri in cisplatin-induced nephrotoxicity” (2015)
Active and inactive are the calls of the source. The calls are words filed in the database; no cut-off is given here.

Key:
LLC-PK1 [1] = assay: Renoprotective activity in pig LLC-PK1 cells assessed as reduction in cisplatin-induced toxicity preincubated for 2 hrs followed by cisplatin challenge for 24 hrs by MTT assay; type: functional, cell-based; conditions: Sus scrofa
LLC-PK1 [2] = assay: Renoprotective activity in pig LLC-PK1 cells assessed as reduction in cisplatin-induced toxicity at 250 uM preincubated for 2 hrs followed by cisplatin challenge for 24 hrs by MTT assay; type: functional, Sus scrofa; design: scale not given: the % may be the effect or the level left
LLC-PK1 [3] = assay: Inhibition of cisplatin-induced p38 phosphorylation in pig LLC-PK1 cells at 125 uM preincubated for 2 hrs followed by cisplatin challenge for 24 hrs by western blot analysis; type: cell-based; conditions: Sus scrofa
LLC-PK1 [4] = assay: Renoprotective activity in pig LLC-PK1 cells assessed as reduction in cisplatin-induced toxicity at 125 uM preincubated for 2 hrs followed by cisplatin challenge for 24 hrs by MTT assay; type: functional, Sus scrofa; design: scale not given: the % may be the effect or the level left
LLC-PK1 [5] = assay: Renoprotective activity in pig LLC-PK1 cells assessed as reduction in cisplatin-induced nucleus break-up at 125 uM preincubated for 2 hrs followed by cisplatin challenge for 24 hrs by phase-contrast microscopic analysis; type: functional, cell-based; conditions: Sus scrofa
LLC-PK1 [6] = assay: Renoprotective activity in pig LLC-PK1 cells assessed as reduction in cisplatin-induced progressive condensation at 125 uM preincubated for 2 hrs followed by cisplatin challenge for 24 hrs by phase-contrast microscopic analysis; type: functional, cell-based; conditions: Sus scrofa
LLC-PK1 [7] = assay: Renoprotective activity in pig LLC-PK1 cells assessed as inhibition of cisplatin-induced cleaved caspase-3 expression at 125 uM preincubated for 2 hrs followed by cisplatin challenge for 24 hrs by western blot analysis; type: functional, cell-based; conditions: Sus scrofa
LLC-PK1 [8] = assay: Inhibition of cisplatin-induced JNK phosphorylation in pig LLC-PK1 cells at 125 uM preincubated for 2 hrs followed by cisplatin challenge for 24 hrs by western blot analysis; type: cell-based; conditions: Sus scrofa
LLC-PK1 [9] = assay: Renoprotective activity against cisplatin induced toxicity in pig LLC-PK1 cells assessed as reduction in apoptotic cells at 125 uM preincubated for 2 hrs followed by cisplatin challenge for 24 hrs annexin-V-FITC and propidium iodide staining based flow cytometry; type: functional, cell-based; conditions: Sus scrofa
LLC-PK1 [10] = assay: Inhibition of cisplatin-induced ERK phosphorylation in pig LLC-PK1 cells at 125 uM preincubated for 2 hrs followed by cisplatin challenge for 24 hrs by western blot analysis; type: cell-based; conditions: Sus scrofa
LLC-PK1 [11] = assay: Renoprotective activity in pig LLC-PK1 cells assessed as reduction in cisplatin-induced cell shrank at 125 uM preincubated for 2 hrs followed by cisplatin challenge for 24 hrs by phase-contrast microscopic analysis; type: functional, cell-based; conditions: Sus scrofa

| SMILES | Activity (LLC-PK1 [1]) | Activity (LLC-PK1 [2]) [%] | inhibition (LLC-PK1 [3]) | Activity (LLC-PK1 [4]) [%] | Activity (LLC-PK1 [5]) | Activity (LLC-PK1 [6]) | inhibition (LLC-PK1 [7]) | inhibition (LLC-PK1 [8]) | Activity (LLC-PK1 [9]) | inhibition (LLC-PK1 [10]) | Activity (LLC-PK1 [11]) |
| --- | --- | --- | --- | --- | --- | --- | --- | --- | --- | --- | --- |
| C=C(C)[C@@H]1CC[C@]2(C(=O)O)CC[C@]3(C)[C@H](CC[C@@H]4[C@@]5(C)C[C@@H](O)[C@H](O)C(C)(C)[C@@H]5CC[C@]43C)[C@@H]12 | Dose-dependent effect | – | – | – | – | – | – | – | – | – | – |
| C=C(C)[C@@H]1CC[C@]2(C(=O)OC)CC[C@]3(C)[C@H](CC[C@@H]4[C@@]5(C)CC[C@@H](O)C(C)(C)[C@@H]5CC[C@]43C)[C@@H]12 | Dose-dependent effect | – | – | – | – | – | – | – | – | – | – |
| C=C(C)[C@@H]1CC[C@]2(C(=O)O)CC[C@]3(C)[C@H](CC[C@@H]4[C@@]5(C)C[C@@H](OC(=O)/C=C/c6ccc(O)cc6)[C@H](O)C(C)(C)[C@@H]5CC[C@]43C)[C@@H]12 | Dose-dependent effect | – | – | – | – | – | – | – | – | – | – |
| C=C(C=O)[C@@H]1CC[C@]2(C(=O)O)CC[C@]3(C)[C@H](CC[C@@H]4[C@@]5(C)CC[C@H](O)C(C)(C)[C@@H]5CC[C@]43C)[C@@H]12 | Dose-dependent effect | 80 | Active | 80 | Active | Active | Active | Active | Active | Active | Active |
| C=C(C)[C@@H]1CC[C@]2(C(=O)O)CC[C@]3(C)[C@H](CC[C@@H]4[C@@]5(C)CC[C@H](O)C(C)(C)[C@@H]5CC[C@]43C)[C@@H]12 [BETULINIC ACID] | Dose-dependent effect | 80 | Active | 80 | Active | Active | Active | Active | Active | inactive | Active |
| C=C(C)[C@@H]1CC[C@]2(CO)CC[C@]3(C)[C@H](CC[C@@H]4[C@@]5(C)CC[C@H](OC(C)=O)C(C)(C)[C@@H]5CC[C@]43C)[C@@H]12 | Dose-dependent effect | 80 | Active | 80 | Active | Active | Active | Active | Active | Active | Active |
| C=C(C)[C@@H]1CC[C@]2(C)CC[C@]3(C)[C@H](CC[C@@H]4[C@@]5(C)CC[C@H](O)C(C)(C)[C@@H]5CC[C@]43C)[C@@H]12 [LUPEOL] | Dose-dependent effect | 80 | Active | 80 | Active | Active | Active | Active | Active | Active | Active |
